# Like-named read-outs stand apart in the source and are kept apart here.
# Legend:
# DNA [1] = details: known analogues; cited from earlier work
# DNA [2] = experiment: Thermal denaturation of DNA (ΔTm), stabilization of DNA helical structure on drug binding; design: species or system calf thymus; details: for Tm (ΔTm = Tm of DNA-drug complex minus Tm of DNA): drug 1.4 × 10^-4 M, DNA (P) 1.4 × 10^-3 M, 0.01 M phosphate buffer pH 7.0, EDTA, 5% dimethyl sulfoxide
# Experimental: Thermal denaturation studies were carried out according to the procedure described in J. Med. Chem., Vol. 24, p. 1052 (1981). The ΔTm values in Table II give a measure of stabilization of DNA helical structure as a consequence of drug binding.
# ^a ΔTm = m of DNAdrug complex minus m of DNA.
# Concentraiton of drug, 1.4 × 10^-4 M; of DNA (P), 1.4 ×
# 10^-3 M in 0.01 M phosphate buffer (pH 7.0), 5 × 10^-3 M in
# EDTA and 5% dimethyl sulfoxide.
# ^d Highest dose tested. These values are derived at high temperatur
# (67°-75° C.) and may not always correlate with the results
# of other DNA-binding studies (e.g., absorptiometric or circular dichroic).
# Melting points were obtained with a Thomas-Hoover melting point apparatus at a heating rate of 2° C./min. Column chromatography was accomplished with silica gel powder (Baker No. 3405, 60-20 mesh) or acid alumina (Woelm grade 1). Limited gel-filtration work was done on Sephadex LH-20, particle size 25-100 μm (Pharmacia Fine Chemicals). Thin-layer chromatography was performed on silica gel plates (E. M. Laboratories, Inc.). Solvent systems used were (A) butanol-formic acid-H2 O (75:13:12), (B) EtOAc-acetone (3:1), and (C) Cifferri, the organic phase of the mixture EtOAc-MeOH-H2 O (20:1:20). High-performance liquid chromatography was carried out on a Varian Model 5020 gradient liquid chromatograph equipped with CD-111L chromatography data system and fitted with Varian reversed-phase C18 column with isocratic solvent systems, CH3 -CN-5 mM NH4 OAc buffer, pH 6.4 (68:32 or 62:38), pressure 80-140 atm, flow rate 1.5 mL/min, with UV-visible variable and fixed wavelength dual detectors at 254 and 466 nm. Spectra were determined on the following instruments: IR spectra were obtained with a Perkin-Elmer Model 237 Infra Cord with KBr micropellets or chloroform solutions; UV-visible spectra were obtained on a Gilford 250 spectrophotometer, which, with the addition of a base-line reference compensator (Analog Multiplexer 6064) and thermoprogrammer, auto four cell programmer and thermoelectric cell holder 2577, was used to obtain thermal denaturation curves; NMR spectra were obtained on a JOEL FQ-90-90MHZ spectrometer equipped with Fourier transform; and CD spectra were obtained on a Cary 61 spectrophotometer. All elemental analyses were within ±0.4% of the theoretical values. Actinomycin D, batch no. NCS 3053, lot L554651-0-10, was provided by Natural Products Branch, National Cancer Institute, Silver Spring, Md. Calf thymus DNA type 1 was purchased from Sigma Chemical Co.
# DNA [3] = experiment: DNA-binding mode, covalent and noncovalent (statements)
# [4] = tested on: human lymphoblastic leukemic cells (CCRF-CEM); experiment: In vitro growth-inhibitory activity against human lymphoblastic leukemic cells (CCRF-CEM) in log phase; assay type: cell-based; details: for IC50: Homo sapiens
# P-388 leukemia = experiment: In vivo antitumor activity against P-388 lymphocytic leukemia in CDF1 mice; details: for % ILS (percent increase in life span) / MST (median survival time) / cure (over 55 day survivors): days 1, 5, 9; for minimal effective dose: Mus musculus, P388, ip, read-out: MED (minimum effective dose, 40% increase in life span over control)
# Experimental: Studies on in vivo activity of AMD and AMD analogues were carried out with P-388 lymphocytic leukemia in CDF1 hybrid mice. The drugs were administered either daily for 4 successive days (qd 1-4) or on days 1, 5 and 9 (q4d 1, 5, 9) beginning 1 day after tumor implantation.
# ^a Male CDF1 (18-23 g) mice were inoculated intraperitoneally
# (ip) with 10^6 P388 cells on day 0. Drugs were administered, also ip,
# in 10% dimethyl sulfoxidesaline on days 1, 5 and 9. Test solutions were
# kept at 0-4° C., protected from light, and the stability and
# homogeneity were checked periodically by TLC and HPLC.
# ^b MST = median survival time.
# ^c % ILS = percent increase in life span.
# ^d Over 55 day survivors. Average of three experiments. The
# ^a Drugs administed ip once daily either for 4 successive days (qd
# 1-4) or on days 1, 5 and 9 (q4d 1, 5 9), starting 1 day after tumor
# ^b MED (minimum effective dose) is the dose (milligrams/kilogram)
# providing an increase in life span of 40% over control in P388
# normal CDF1 male mice = experiment: Maximum tolerated dose (LD10) in normal, tumor-free CDF1 male mice; assay type: in vivo; details: for MTD (maximum tolerated dose, lethal for 10% of normal mice; = LD10): deaths during 21 days
# Experimental: ^c MTD (maximum tolerated dose) is the lethal dose
# (milligrams/kilogram) for 10% normal CDF1 male mice (18-23 g);
# were calculated from a plot of log dose vs. percent mortality. Average of
# two to three experiments.
# Biological Experiments. Determination of LD10 Values. Tumor-free CDF1 male mice weighing 18-23 g were given a broad range of doses of drugs in 10% dimethyl sulfoxide-saline on either days 1, 5 and 9 or on 4 successive days. Drugs were administered intraperitoneally (ip).
# The maximum tolerated doses of AMD and analogues that caused deaths in only 10% of the tested animals in 21 days were recorded as MTD. The results are an average of two experiments in each. The MTD values obtained following schedules q4d 1, 5, 9 (three injections) and qd 1-4 (four injections) are recorded in Table IV. These doses are the same as LD10 (lethal dose of 10% of tumor-free animals in 21 days).
# calf thymus DNA = experiment: DNA binding by visible absorption and CD spectra of DNA (P)-drug complex; details: mole ratio DNA (P)/analogue = 10:1; 3b, 4b and 5b compared; 1.0×10^-5 M, pH 7
# Text: In FIG. 1, absorption (top) and circular dichroism (bottom) spectra in 0.01 M phosphate buffer (pH7) containing EDTA (10^-5 M) and Me2 SO (5%): 3b (...), 4b (---), 5b (--). Concentration of drug in each case was 1.0×10^-5 M. In this respect, they are almost indistinguishable from the known analogue 7-methoxyactinomycin D (5b), whose structure and physical properties we have previously reported. The absorption spectra of all these analogues in aqueous buffer are also almost superimposable. […] The absorption spectrum of the analogues above 240 nm is mainly due to the electronic configuration of the tricyclic chromophore. The CD spectrum in the same wavelength region is an indicator of peptide conformation in actinomycin analogues, because it is the peptide lactone ring that confers optical activity on the nearly planar chromophore. The nature of the CD spectra (3b, 4b and 5b) asserts that in these analogues there is an identical relationship between the chromophores and peptide lactones. This relationship is very important, because during binding to DNA, AMD and some analogues are known to rely on the cooperative role between the chromophore and the peptide lactones for their highly specific DNA-binding property.
# Any change in the configurations of the peptide lactones on binding to DNA is generally expressed in the CD spectra of the analogue-DNA complexes. […] The changes in the visible absorption spectra of 3b, 4b and 5b and also their CD spectra observed after adding calf thymus DNA [mole ratio of DNA (P)/analogue=10:1] are identical (FIG. 2). In FIG. 2, the absorption (top) and CD spectra of the DNA (P)-drug complex (ratio 10:1). Concentrations, buffer and line types are as in FIG. 1.
# [5] = three injections ip, q4d 1, 5, 9
smiles,measurement,setting,value
Cc1c2oc3c(C)c(N)cc(C(=O)N[C@@H]4C(=O)N[C@H](C(C)C)C(=O)N5CCC[C@H]5C(=O)N(C)CC(=O)N(C)[C@@H](C(C)C)C(=O)O[C@@H]4C)c3nc-2c(C(=O)N[C@@H]2C(=O)N[C@H](C(C)C)C(=O)N3CCC[C@H]3C(=O)N(C)CC(=O)N(C)[C@@H](C(C)C)C(=O)O[C@@H]2C)c(N)c1=O [7-aminoactinomycin D],"mode of DNA binding, same way as AMD",DNA [1],by intercalation of the chromophore and concomitant hydrogen and hydrophobic interactions of the peptide lactones
"CCN(CC)C(=O)c1c2nc3c(C(=O)N(CC)CC)ccc(C)c3oc-2c(C)c(=O)c1N [Compound 1a, reference compound]",Tm (ΔTm = Tm of DNA-drug complex minus Tm of DNA),DNA [2],0 °C
same,DNA-binding related activity,DNA [3],no DNA-binding related activity
CCN(CC)C(=O)c1c2nc3c(C(=O)N(CC)CC)cc(O)c(C)c3oc-2c(C)c(=O)c1N [Compound 2a],Tm (ΔTm = Tm of DNA-drug complex minus Tm of DNA),DNA [2],0 °C
"Cc1c2oc3c(C)c(O)cc(C(=O)N[C@@H]4C(=O)N[C@H](C(C)C)C(=O)N5CCC[C@H]5C(=O)N(C)CC(=O)N(C)[C@@H](C(C)C)C(=O)O[C@@H]4C)c3nc-2c(C(=O)N[C@@H]2C(=O)N[C@H](C(C)C)C(=O)N3CCC[C@H]3C(=O)N(C)CC(=O)N(C)[C@@H](C(C)C)C(=O)O[C@@H]2C)c(N)c1=O [Compound 2b, 7-hydroxyactinomycin D, reference compound]",Tm (ΔTm = Tm of DNA-drug complex minus Tm of DNA),DNA [2],6.7 ± 0.15 °C
same,DNA melting profile / ΔTm character of the DNA complex,"DNA [2]; thermal denaturation, words",sharp and smooth
same,IC50,"[4]; final growth medium contained 1% Me2SO, log phase, read-out: ID50 (in vitro growth inhibition, CCRF-CEM)",0.95 µg/mL
same,% ILS (percent increase in life span),P-388 leukemia; 0.15 mg/kg ip,10%
same,MST (median survival time),P-388 leukemia; 0.15 mg/kg ip,12 days
same,cure (over 55 day survivors),P-388 leukemia; 0.15 mg/kg ip,0/7
same,% ILS (percent increase in life span),P-388 leukemia; 0.30 mg/kg ip,55%
same,MST (median survival time),P-388 leukemia; 0.30 mg/kg ip,17 days
same,cure (over 55 day survivors),P-388 leukemia; 0.30 mg/kg ip,0/7
same,% ILS (percent increase in life span),P-388 leukemia; 0.60 mg/kg ip,89%
same,MST (median survival time),P-388 leukemia; 0.60 mg/kg ip,21 days
same,cure (over 55 day survivors),P-388 leukemia; 0.60 mg/kg ip,0/7
same,% ILS (percent increase in life span),P-388 leukemia; 1.20 mg/kg ip,127%
same,MST (median survival time),P-388 leukemia; 1.20 mg/kg ip,25 days
same,cure (over 55 day survivors),P-388 leukemia; 1.20 mg/kg ip,0/7
same,% ILS (percent increase in life span),P-388 leukemia; 1.80 mg/kg ip,136%
same,MST (median survival time),P-388 leukemia; 1.80 mg/kg ip,26 days
same,cure (over 55 day survivors),P-388 leukemia; 1.80 mg/kg ip,0/7
same,% ILS (percent increase in life span),P-388 leukemia; 3.00 mg/kg ip,37%
same,MST (median survival time),P-388 leukemia; 3.00 mg/kg ip,15 days
same,cure (over 55 day survivors),P-388 leukemia; 3.00 mg/kg ip,0/7
same,minimal effective dose,"P-388 leukemia; four injections ip, qd 1-4",0.2 mg/kg
same,minimal effective dose,P-388 leukemia; [5],0.275 mg/kg
same,therapeutic index: MTD/MED,"P-388 leukemia; four injections ip, qd 1-4",10
same,"activity in respect of % ILS, 1b versus 2b","P-388 leukemia; ip, q4d 1, 5, 9",approximately equiactive
same,dose higher than AMD needed for equiactivity,"P-388 leukemia; ip, q4d 1, 5, 9",> 14 fold
same,therapeutic index: MTD/MED,P-388 leukemia; [5],15
same,"MTD (maximum tolerated dose, lethal for 10% of normal mice; = LD10)","normal CDF1 male mice; four injections ip, qd 1-4",2.0 milligrams/kilogram
same,MTD dose as multiple of the MTD dose for AMD,"normal CDF1 male mice; q4d 1, 5, 9 schedule",17 fold
same,fold less toxic than AMD,normal CDF1 male mice; qd 1-4 schedule,13 fold
same,"MTD (maximum tolerated dose, lethal for 10% of normal mice; = LD10)",normal CDF1 male mice; [5],4.2 milligrams/kilogram
CCN(CC)C(=O)c1c2nc3c(C(=O)N(CC)CC)cc(OCC4CO4)c(C)c3oc-2c(C)c(=O)c1N (stereo not drawn) [Compound 3a],Tm (ΔTm = Tm of DNA-drug complex minus Tm of DNA),DNA [2],0 °C
same,fold less toxic compared to AMD and its analogues,[4],more than 1000 fold
same,IC50,[4]; read-out: ID50 (the source's name),9 µg/mL
CCN(CC)C(=O)c1c2nc3c(C(=O)N(CC)CC)cc(OCC(O)CO)c(C)c3oc-2c(C)c(=O)c1N (stereo not drawn) [Compound 4a],Tm (ΔTm = Tm of DNA-drug complex minus Tm of DNA),DNA [2],0 °C
same,fold less toxic compared to AMD and its analogues,[4],more than 1000 fold
"COc1cc(C(=O)N[C@@H]2C(=O)N[C@H](C(C)C)C(=O)N3CCC[C@H]3C(=O)N(C)CC(=O)N(C)[C@@H](C(C)C)C(=O)O[C@@H]2C)c2nc3c(C(=O)N[C@@H]4C(=O)N[C@H](C(C)C)C(=O)N5CCC[C@H]5C(=O)N(C)CC(=O)N(C)[C@@H](C(C)C)C(=O)O[C@@H]4C)c(N)c(=O)c(C)c-3oc2c1C [Compound 5b, 7-methoxyactinomycin D, reference compound]",changes in visible absorption and CD spectra after adding calf thymus DNA,calf thymus DNA,identical
"Cc1c2oc3c(C)c([N+](=O)[O-])cc(C(=O)N[C@@H]4C(=O)N[C@H](C(C)C)C(=O)N5CCC[C@H]5C(=O)N(C)CC(=O)N(C)[C@@H](C(C)C)C(=O)O[C@@H]4C)c3nc-2c(C(=O)N[C@@H]2C(=O)N[C@H](C(C)C)C(=O)N3CCC[C@H]3C(=O)N(C)CC(=O)N(C)[C@@H](C(C)C)C(=O)O[C@@H]2C)c(N)c1=O [Compound 7-nitro-, 7-nitro-]","mode of DNA binding, same way as AMD",DNA [1],by intercalation of the chromophore and concomitant hydrogen and hydrophobic interactions of the peptide lactones

# Reference: patent US4514330A, “Carbon-7-substituted atinomycin D analogue” (Trustees of Boston University, priority 1983, dated 1985)
